Test results published in patent publication US20110070552A1, “USE OF SECONDARY OPTICAL EMISSION AS A NOVEL BIOFILM TARGETING TECHNOLOGY” (NOMIR MEDICAL TECHNOLOGIES INC, priority 2003, published 2011).

Experiments:
Assay type in all cases: in vivo, human
[1] = tested on: biofilm in periodontal pocket; test: Treatment of a recalcitrant 10 mm periodontal pocket: chromophore staining plus 830 nm diode laser hot tip; conditions: one patient; for periodontal pocket probing depth: baseline 10 mm pocket, 0.1% MB solution, laser 1000 mW
Excerpt: (§1) The laser used to exemplify the invention was a 830 nm diode laser with a power output of between 800 mW-1200 mW in the Continuous Wave mode of operation, through a 600 micron silica laser delivery fiber. The live human patients (in vivo) all presented with some advanced state of periodontal or periimplant disease and/or active infection. Presented below are data for two representative patients.
Presented as a healthy […] with a recalcitrant 10 mm periodontal pocket on the facial aspect of the maxillary canine (tooth #6) after a regular dental cleaning and scaling. In a minimally invasive procedure, the patient was anesthetized with xylocaine, and the periodontal pocket was infused with 0.1% MB solution via a small bristled brush that easily fits into the volume of the pocket. The MB solution was left for approximately 2 minutes in the area, and then surface irrigation of H2O was applied.
A […] silica fiber connected to a 830 nm dental diode laser (sold by Lumenis Technologies, Yokneam, Israel) was then activated at 1000 mW and the fiber was placed into the periodontal pocket, where it immediately came in contact with biofilm, tissue, and blood products. The tip of the fiber immediately carbonized, and became incandescent. The fiber (with the secondary quantum emissions emanating from the carbonized tip), was then moved around the three dimensional area of the periodontal pocket for a period of 30 to 45 seconds in rapid movements, never staying in one direct area for more than 1 second at a time. The area was then scaled with traditional gracey periodontal scalers (sold by Hu-Friedy Chicago, Ill.), and then irrigated with copious water. The patient was sent home with administration of 600 mg of Ibuprophen (sold by Wyeth, Madison, N.J.) analgesic given chair-side, and no antibiotics.

[2] = tested on: biofilm and infection around titanium implant; test: Treatment of infected periimplant tissue: chromophore staining plus 830 nm diode laser hot tip
Excerpt: as §1
Presented as a brittle diabetic with an infected titanium implant and a fistula draining the infection. Radiographic appearance detailed 8 mm of lost bone, and generalized radiolucency around the medial half of the implant. […] The area was surgically opened with a conventional trapezoidal shaped flap, and the infection and biofilm effected area was bathed in a 0.1% MB solution (sold by Vista Dental Products, Racine, Wis.) for approximately 2 minutes. The area was then irrigated with copious H2O, leaving the targeted biofilm behind, and washing away excess stain. A […] silica fiber connected to an 830 nm dental diode laser was then activated at 1200 mW and the fiber was placed in contact with biofilm and blood products and immediately carbonized. […]

[3] = tested on: periodontal and periimplant pockets and infections; test: Procedure performed on 50 patients in periodontal and periimplant pockets and infections; conditions: 50 patients in the last 24 months, 830 nm diode laser 800 mW-1200 mW CW, 600 micron fiber
Excerpt: as §1

Row | Structure (SMILES) | state of the periodontal pocket ([1]; 0.1% MB solution approx. 2 minutes, laser 1000 mW 30 to 45 seconds, then scaling, eight days post-op) | periodontal pocket probing depth ([1]; at four months) [mm] | periodontal pocket probing depth ([1]; at six weeks) [mm] | infection status of periimplant area ([2]; one diabetic patient, 0.1% MB solution approx. 2 minutes, laser 1200 mW 60 to 90 seconds, scaling, 5 day Amoxicillin, three weeks post-op) | infection status of periimplant area ([2]; same patient, at 9 months) | clinical outcome [3]
1 | CN(C)c1ccc2nc3ccc(=[N+](C)C)cc-3sc2c1 [Methylene Blue] | completely closed | 3 | 3 | completely free of infection | still infection free | successful outcomes
2 | Cc1cc2nc3ccc(N(C)C)cc3[s+]c2cc1N.[Cl-] [Toludine Blue] | – | – | – | – | – | successful outcomes
